The text below walks through data of patent US20250312352A1, “GLP-1R MODULATING COMPOUNDS” (Gilead Sciences, Inc., priority 2021, published 2025).

The structures appear in SMILES notation.

The target in the experiment is T1, GLP-1R (Homo sapiens, UniProt P43220).
T1 construct: host or cells: CHO cells
Kind of experiment: GLP-1R activation cAMP assay (Assay 1 or Assay 2). The settings on record: cAMP increase in CHO cells stably expressing GLP-1R; compounds run on one of the two cAMP assays. Type of experiment: cell-based. In outline:
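EC50 values come from a sigmoidal fit of HTRF-detected cAMP rise versus log agonist concentration. GLP-1R-expressing CHO cells, equilibrated 1 h at 37 °C in HBSS with HEPES and BSA, received a 10-point compound dose series for 30 min before detection.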
(In general: cAMP levels reflect the balance of adenylyl cyclase and phosphodiesterase activity.)

T1 sequence (P43220 24-463): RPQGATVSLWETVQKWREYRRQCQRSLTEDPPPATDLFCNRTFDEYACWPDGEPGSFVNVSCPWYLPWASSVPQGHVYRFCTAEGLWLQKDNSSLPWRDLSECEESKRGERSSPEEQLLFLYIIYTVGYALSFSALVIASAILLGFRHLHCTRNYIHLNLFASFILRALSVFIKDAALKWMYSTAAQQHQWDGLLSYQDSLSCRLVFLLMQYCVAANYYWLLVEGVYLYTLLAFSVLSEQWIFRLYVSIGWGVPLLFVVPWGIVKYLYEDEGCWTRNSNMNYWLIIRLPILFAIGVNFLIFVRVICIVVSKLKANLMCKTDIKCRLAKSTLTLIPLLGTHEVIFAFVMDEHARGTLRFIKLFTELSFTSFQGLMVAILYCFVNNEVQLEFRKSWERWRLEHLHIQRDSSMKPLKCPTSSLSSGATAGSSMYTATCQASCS

Broadly, the EC50 is the midpoint of the concentration-response curve. A low value points to greater potency. `COc1nnc(COc2nc(-c3cc(F)c(Cc4nc5ccc(C(=O)O)cc5n4[C@@H]4COCC4(C)C)c(F)c3F)ccc2F)s1` [Example 270, (S)-1-(4,4-dimethyltetrahydrofuran-3-yl)-2-(2,3,6-trifluoro-4-(5-fluoro-6-((5-methoxy-1,3,4-thiadiazol-2-yl)methoxy)pyridin-2-yl)benzyl)-1H-benzo[d]imidazole-6-carboxylic acid] displayed an EC50 of 0.191 nM.
`COc1nnc(COc2cccc(-c3cc(F)c(Cc4nc5ccc(C(=O)O)cc5n4CC4(CF)CC4)c(F)c3F)n2)s1` [Example 271, 1-((1-(fluoromethyl)cyclopropyl)methyl)-2-(2,3,6-trifluoro-4-(6-((5-methoxy-1,3,4-thiadiazol-2-yl)methoxy)pyridin-2-yl)benzyl)-1H-benzo[d]imidazole-6-carboxylic acid] yielded an EC50 of 0.897 nM.
Turning to `COc1nnc(COc2cccc(-c3cc(F)c(Cc4nc5ccc(C(=O)O)cc5n4CC4(CF)CC4)cc3F)n2)s1` [Example 272, 2-(2,5-difluoro-4-(6-((5-methoxy-1,3,4-thiadiazol-2-yl)methoxy)pyridin-2-yl)benzyl)-1-((1-(fluoromethyl)cyclopropyl)methyl)-1H-benzo[d]imidazole-6-carboxylic acid], the response was half-maximal at 1.9 nM (EC50).
`COc1nnc(COc2cccc(-c3cc(F)c(Cc4nc5ccc(C(=O)O)cc5n4[C@@H]4COCC4(C)C)c(F)c3F)n2)s1` [Example 273, (S)-1-(4,4-dimethyltetrahydrofuran-3-yl)-2-(2,3,6-trifluoro-4-(6-((5-methoxy-1,3,4-thiadiazol-2-yl)methoxy)pyridin-2-yl)benzyl)-1H-benzo[d]imidazole-6-carboxylic acid] displayed a half-maximal effective concentration (EC50) of 0.144 nM.
`Cn1cc(C#Cc2cnc(COc3cccc(-c4cc(F)c(Cc5nc6c(F)cc(C(=O)O)cc6n5CC5(CF)CC5)cc4F)n3)c(F)c2)cn1` [Example 274, 2-(2,5-difluoro-4-(6-((3-fluoro-5-((1-methyl-1H-pyrazol-4-yl)ethynyl)pyridin-2-yl)methoxy)pyridin-2-yl)benzyl)-4-fluoro-1-((1-(fluoromethyl)cyclopropyl)methyl)-1H-benzo[d]imidazole-6-carboxylic acid] displayed an EC50 of 0.196 nM.
As for `COc1nnc(COc2cccc(-c3cc(F)c(Cc4nc5c(F)cc(C(=O)O)cc5n4CC4(C(F)F)CC4)cc3F)n2)s1` [Example 275, 2-(2,5-difluoro-4-(6-((5-methoxy-1,3,4-thiadiazol-2-yl)methoxy)pyridin-2-yl)benzyl)-1-((1-(difluoromethyl)cyclopropyl)methyl)-4-fluoro-1H-benzo[d]imidazole-6-carboxylic acid], the response was half-maximal at 0.372 nM (EC50).
As to `COc1nnc(COc2cccc(-c3cc(F)c(Cc4nc5ccc(C(=O)O)cc5n4CC4(C(F)F)CC4)cc3F)n2)s1` [Example 276, 2-(2,5-difluoro-4-(6-((5-methoxy-1,3,4-thiadiazol-2-yl)methoxy)pyridin-2-yl)benzyl)-1-((1-(difluoromethyl)cyclopropyl)methyl)-1H-benzo[d]imidazole-6-carboxylic acid], the midpoint of the response, the EC50, lay at 1.31 nM.
Take `COc1ncc(C#Cc2ccc(COc3cccc(-c4cc(F)c(Cc5nc6ccc(C(=O)O)cc6n5C[C@@H]5CCO5)cc4F)n3)c(F)n2)s1` [Example 277, (S)-2-(2,5-difluoro-4-(6-((2-fluoro-6-((2-methoxythiazol-5-yl)ethynyl)pyridin-3-yl)methoxy)pyridin-2-yl)benzyl)-1-(oxetan-2-ylmethyl)-1H-benzo[d]imidazole-6-carboxylic acid]: the concentration for a half-maximal effect (EC50) is 0.312 nM.
`Cn1nncc1C#Cc1ccc(COc2cccc(-c3cc(F)c(Cc4nc5ccc(C(=O)O)cc5n4C[C@@H]4CCO4)cc3F)n2)c(F)n1` [Example 278, (S)-2-(2,5-difluoro-4-(6-((2-fluoro-6-((1-methyl-1H-1,2,3-triazol-5-yl)ethynyl)pyridin-3-yl)methoxy)pyridin-2-yl)benzyl)-1-(oxetan-2-ylmethyl)-1H-benzo[d]imidazole-6-carboxylic acid] had an EC50 of 0.617 nM.
The compound `Cn1nncc1C#Cc1ccc(COc2cccc(-c3cc(F)c(Cc4nc5ccc(C(=O)O)cc5n4C4COCC4(C)C)cc3F)n2)c(F)c1` (stereo not shown) [Example 279, 2-(2,5-difluoro-4-(6-((2-fluoro-4-((1-methyl-1H-1,2,3-triazol-5-yl)ethynyl)benzyl)oxy)pyridin-2-yl)benzyl)-1-(4,4-dimethyltetrahydrofuran-3-yl)-1H-benzo[d]imidazole-6-carboxylic acid] registered a concentration for a half-maximal effect (EC50) of 0.955 nM.
`COc1nnc(COc2cccc(-c3cc(F)c(Cc4nc5c(F)cc(C(=O)O)cc5n4CC4(CF)CC4)c(F)c3F)n2)s1` [Example 280, 4-fluoro-1-((1-(fluoromethyl)cyclopropyl)methyl)-2-(2,3,6-trifluoro-4-(6-((5-methoxy-1,3,4-thiadiazol-2-yl)methoxy)pyridin-2-yl)benzyl)-1H-benzo[d]imidazole-6-carboxylic acid]: a half-maximal response (EC50) required 0.067 nM.
Compound `COc1nnc(COc2cccc(-c3cc(F)c(Cc4nc5ccc(C(=O)O)cc5n4C4COCC4(C)C)c(F)c3F)n2)s1` (stereo not shown) [Example 282, 1-(4,4-dimethyltetrahydrofuran-3-yl)-2-(2,3,6-trifluoro-4-(6-((5-methoxy-1,3,4-thiadiazol-2-yl)methoxy)pyridin-2-yl)benzyl)-1H-benzo[d]imidazole-6-carboxylic acid] yielded an EC50 of 0.311 nM.
The compound `Cc1nnc(COc2cccc(-c3cc(F)c(Cc4nc5c(F)cc(C(=O)O)cc5n4[C@@H]4COCC4(C)C)cc3F)n2)s1` [Example 283, (S)-2-(2,5-difluoro-4-(6-((5-methyl-1,3,4-thiadiazol-2-yl)methoxy)pyridin-2-yl)benzyl)-1-(4,4-dimethyltetrahydrofuran-3-yl)-4-fluoro-1H-benzo[d]imidazole-6-carboxylic acid] came in with an EC50 of 0.109 nM.
`O=C(O)c1ccc2nc(Cc3cc(F)c(-c4cccc(OCc5ncc(C#Cc6ccc(F)cc6)cc5F)n4)cc3F)n(C[C@@H]3CCO3)c2c1` [Example 284, (S)-2-(2,5-difluoro-4-(6-((3-fluoro-5-((4-fluorophenyl)ethynyl)pyridin-2-yl)methoxy)pyridin-2-yl)benzyl)-1-(oxetan-2-ylmethyl)-1H-benzo[d]imidazole-6-carboxylic acid] came in with an EC50 of 0.183 nM.
To `O=C(O)c1ccc2nc(Cc3cc(F)c(-c4cccc(OCc5ncc(C#Cc6cnsc6)cc5F)n4)cc3F)n(C[C@@H]3CCO3)c2c1` [Example 285, (S)-2-(2,5-difluoro-4-(6-((3-fluoro-5-(isothiazol-4-ylethynyl)pyridin-2-yl)methoxy)pyridin-2-yl)benzyl)-1-(oxetan-2-ylmethyl)-1H-benzo[d]imidazole-6-carboxylic acid] belongs 0.126 nM; to `O=C(O)c1ccc2nc(Cc3cc(F)c(-c4cccc(OCc5ncc(C#Cc6cn[nH]c6)cc5F)n4)cc3F)n(C[C@@H]3CCO3)c2c1` [Example 286, (S)-2-(4-(6-((5-((1H-pyrazol-4-yl)ethynyl)-3-fluoropyridin-2-yl)methoxy)pyridin-2-yl)-2,5-difluorobenzyl)-1-(oxetan-2-ylmethyl)-1H-benzo[d]imidazole-6-carboxylic acid], 0.042 nM; to `O=C(O)c1ccc2nc(Cc3cc(F)c(-c4cccc(OCc5ccc(C#Cc6cnn(C(F)F)c6)cc5F)n4)cc3F)n(C[C@@H]3CCO3)c2c1` [Example 287, (S)-2-(4-(6-((4-((1-(difluoromethyl)-1H-pyrazol-4-yl)ethynyl)-2-fluorobenzyl)oxy)pyridin-2-yl)-2,5-difluorobenzyl)-1-(oxetan-2-ylmethyl)-1H-benzo[d]imidazole-6-carboxylic acid], 0.185 nM.
Regarding `Cn1nncc1C#Cc1cnc(COc2cccc(-c3cc(F)c(Cc4nc5ccc(C(=O)O)cc5n4C[C@@H]4CCO4)cc3F)n2)c(F)c1` [Example 288, (S)-2-(2,5-difluoro-4-(6-((3-fluoro-5-((1-methyl-1H-1,2,3-triazol-5-yl)ethynyl)pyridin-2-yl)methoxy)pyridin-2-yl)benzyl)-1-(oxetan-2-ylmethyl)-1H-benzo[d]imidazole-6-carboxylic acid], the concentration giving a half-maximal response (EC50) was 0.067 nM.
For `Cc1cc(C#Cc2cnn(C)c2)cnc1COc1cccc(-c2cc(F)c(Cc3nc4ccc(C(=O)O)cc4n3C[C@@H]3CCO3)cc2F)n1` [Example 289, (S)-2-(2,5-difluoro-4-(6-((3-methyl-5-((1-methyl-1H-pyrazol-4-yl)ethynyl)pyridin-2-yl)methoxy)pyridin-2-yl)benzyl)-1-(oxetan-2-ylmethyl)-1H-benzo[d]imidazole-6-carboxylic acid], the EC50 was 0.262 nM.
In turn, `Cc1nnc(COc2cccc(-c3cc(F)c(Cc4nc5ccc(C(=O)O)cc5n4[C@@H]4COCC4(C)C)cc3F)n2)s1` [Example 290, (S)-2-(2,5-difluoro-4-(6-((5-methyl-1,3,4-thiadiazol-2-yl)methoxy)pyridin-2-yl)benzyl)-1-(4,4-dimethyltetrahydrofuran-3-yl)-1H-benzo[d]imidazole-6-carboxylic acid] gave an EC50 of 0.155 nM.
Compound `Cc1nc(C#Cc2cnc(COc3cccc(-c4cc(F)c(Cc5nc6ccc(C(=O)O)cc6n5C[C@@H]5CCO5)cc4F)n3)c(F)c2)cs1` [Example 291, (S)-2-(2,5-difluoro-4-(6-((3-fluoro-5-((2-methylthiazol-4-yl)ethynyl)pyridin-2-yl)methoxy)pyridin-2-yl)benzyl)-1-(oxetan-2-ylmethyl)-1H-benzo[d]imidazole-6-carboxylic acid] displayed an EC50 of 0.689 nM.
To `O=C(O)c1ccc2nc(Cc3cc(F)c(-c4cccc(OCc5ncc(C#Cc6cscn6)cc5F)n4)cc3F)n(C[C@@H]3CCO3)c2c1` [Example 292, (S)-2-(2,5-difluoro-4-(6-((3-fluoro-5-(thiazol-4-ylethynyl)pyridin-2-yl)methoxy)pyridin-2-yl)benzyl)-1-(oxetan-2-ylmethyl)-1H-benzo[d]imidazole-6-carboxylic acid] belongs 0.499 nM.
